From patent US10051861B2, “N-arylamidine-substituted trifluoroethyl sulfide derivatives as acaricides and insecticides” (BAYER CROPSCIENCE AG, priority 2011, dated 2018)
Where two headings read alike, the source gives them in different places.

Key:
[1] = logP by HPLC on reversed-phase columns (C 18), EEC Directive 79/831 Annex V.A8; format: physicochemical
Protocol: Calibration is carried out using unbranched alkan-2-ones (having from 3 to 16 carbon atoms) with known log P values (the log P values are determined by the retention times using linear interpolation between two successive alkanones).

[2] = tested on: greenhouse red spider mite (Tetranychus urticae); assay: Tetranychus urticae spray test, OP-resistant (TETRUR), bean leaf disks; format: in vivo; details: for pest or weed control at 500 g/ha: Tetranychus urticae, foliar, 144 h, read-out: efficacy (spider mites killed)
Protocol: After 6 days, the effect in % is determined.

[3] = [a] LC-MS, acidic range, pH 2.7, 0.1% aqueous formic acid/acetonitrile
[4] = reversed-phase C18 HPLC column, pH 7.8, [b] LC-MS, neutral range, pH 7.8, 0.001 molar aqueous ammonium bicarbonate/acetonitrile, read-out: logP(neutral)
[5] = reversed-phase C18 HPLC column, pH 2.7, [a] LC-MS, acidic range, pH 2.7, 0.1% aqueous formic acid/acetonitrile, read-out: logP(HCOOH)
[6] = [a] LC-MS, acidic range, pH 2.7, 0.1% aqueous formic acid/acetonitrile, read-out: logP(HCOOH)
[7] = [b] LC-MS, neutral range, pH 7.8, 0.001 molar aqueous ammonium bicarbonate/acetonitrile, read-out: logP(neutral)
[8] = application rate 500 g/ha, after 6 days

O=C(Nc1cc(SCC(F)(F)F)c(Br)cc1Cl)C(F)(F)F [III-9, N-{4-Bromo-2-chloro-5-[(2,2,2-trifluoroethyl)sulfanyl]phenyl}-2,2,2-trifluoroacetamide]
logP(HCOOH) [1, 3]: 3.46 | chromatographic logP [1, 4]: 3.11

Cc1cc(F)c(/N=C2\CCCN2c2ccccc2)cc1[S+]([O-])CC(F)(F)F (stereo not shown) [Ib-55, 2-Fluoro-4-methyl-N-[(2E)-1-phenylpyrrolidin-2-ylidene]-5-[(2,2,2-trifluoroethyl)sulfinyl]aniline]
chromatographic logP [1, 5]: 1.27 | chromatographic logP [1, 4]: 3.47

Nc1cccc(SCC(F)(F)F)c1 [3-[(2,2,2-Trifluoroethyl)sulfanyl]aniline]
chromatographic logP [1, 5]: 2.01

O=C(Nc1cc(SCC(F)(F)F)c(Br)cc1Cl)C(F)(F)F [III-5, N-{4-Bromo-2-chloro-5-[(2,2,2-trifluoroethyl)sulfanyl]phenyl}-2,2,2-trifluoroacetamide]
chromatographic logP [1, 5]: 3.78

FC(F)(F)CSc1cc(N=C(Cl)C(F)(F)F)ccc1Cl [N-{4-Chloro-3-[(2,2,2-trifluoroethyl)sulfanyl]phenyl}-2,2,2-trifluoroethanimidoyl chloride]
chromatographic logP [1, 5]: 4.77 | chromatographic logP [1, 4]: 4.73

O=C(Nc1cc(SSc2cc(NC(=O)C(F)(F)F)c(F)cc2Br)c(Br)cc1F)C(F)(F)F [IV-7, N,N′-[Disulfanediylbis(4-bromo-6-fluorobenzene-3,1-diyl)]bis(2,2,2-trifluoroacetamide)]
chromatographic logP [1, 5]: 4.76 | chromatographic logP [1, 4]: 4.02

O=C(Nc1cc(SSc2cc(NC(=O)C(F)(F)F)c(Cl)cc2F)c(F)cc1Cl)C(F)(F)F [IV-5, N,N′-[Disulfanediylbis(6-chloro-4-fluorobenzene-3,1-diyl)]bis(2,2,2-trifluoroacetamide)]
chromatographic logP [1, 5]: 4.45 | chromatographic logP [1, 4]: 3.81

Cc1cc(F)c(N=C(N)c2ccccc2F)cc1SCC(F)(F)F [Ia-143]
chromatographic logP [1, 5]: 1.37 | chromatographic logP [1, 4]: 3.25

O=C(Nc1ccc(Br)cc1F)C(F)(F)F [VI-7, N-(4-Bromo-2-fluorophenyl)-2,2,2-trifluoroacetamide]
chromatographic logP [1, 6]: 2.73 | chromatographic logP [1, 7]: 2.51

Cc1cc(F)c(/N=C2\CCCN2c2ccccc2)cc1SCC(F)(F)F [2-Fluoro-4-methyl-N-[(2E)-1-phenylpyrrolidin-2-ylidene]-5-[(2,2,2-trifluoroethyl)sulfanyl]aniline]
chromatographic logP [1, 5]: 1.83 | chromatographic logP [1, 4]: 4.92

O=C(Nc1ccc(Br)cc1Cl)C(F)(F)F [VI-3, N-(4-Bromo-2-chlorophenyl)-2,2,2-trifluoroacetamide]
chromatographic logP [1, 6]: 3.01 | chromatographic logP [1, 7]: 2.81

Cc1cc(F)c(SCC(F)(F)F)cc1NC(=O)C(F)(F)F [III-4, 2,2,2-Trifluoro-N-{4-fluoro-2-methyl-5-[(2,2,2-trifluoroethyl)sulfanyl]phenyl}acetamide]
chromatographic logP [1, 5]: 3.16 | chromatographic logP [1, 4]: 3.1

Cc1cc(F)c(N=C2NCCS2)cc1[S+]([O-])CC(F)(F)F (stereo not shown) [2-Fluoro-4-methyl-N-[1,3-thiazolidin-2-ylidene]-5-[(2,2,2-trifluoroethyl)sulfinyl]aniline]
chromatographic logP [1, 5]: 0.8

Cc1cc(F)c(SCC(F)(F)F)cc1N=C(N(C)C)C(F)(F)F [Ia-24]
logP(HCOOH) ([1]; pH 2.7): 4.53 | logP(neutral) ([1]; pH 7.8): 4.47

O=C(Nc1ccc(F)cc1Cl)C(F)(F)F [VI-5, N-(2-Chloro-4-fluorophenyl)-2,2,2-trifluoroacetamide]
chromatographic logP [1, 6]: 2.46 | chromatographic logP [1, 7]: 2.31

Cc1cc(F)c(NC(=S)NCC(F)(F)F)cc1[S+]([O-])CC(F)(F)F (stereo not shown)
logP(HCOOH) [1, 3]: 2.34 | logP(neutral) ([1]; [b] LC-MS, neutral range, pH 7.8, 0.001 molar aqueous ammonium bicarbonate/acetonitrile): 2.30

O=C(Nc1cc(SCC(F)(F)F)c(F)cc1Cl)C(F)(F)F [III-7, N-{2-Chloro-4-fluoro-5-[(2,2,2-trifluoroethyl)sulfanyl]phenyl}-2,2,2-trifluoroacetamide]
chromatographic logP [1, 5]: 3.33 | chromatographic logP [1, 4]: 3.11

O=C(Nc1cc(SSc2cc(NC(=O)C(F)(F)F)c(Br)cc2Br)c(Br)cc1Br)C(F)(F)F [IV-4, N,N′-[Disulfanediylbis(4,6-dibromobenzene-3,1-diyl)]bis(2,2,2-trifluoroacetamide)]
chromatographic logP [1, 5]: 5.62 | chromatographic logP [1, 4]: 4.49

O=C(Nc1ccc(Br)cc1Br)C(F)(F)F [VI-4, N-(2,4-Dibromophenyl)-2,2,2-trifluoroacetamide]
chromatographic logP [1, 6]: 3.1 | chromatographic logP [1, 7]: 2.89

Cc1cc(C)c(SCC(F)(F)F)cc1N=C1NCCO1 [2,4-Dimethyl-N-[1,3-oxazolidin-2-ylidene]-5-[(2,2,2-trifluoroethyl)sulfanyl]aniline]
chromatographic logP ([1]; pH 2.7, logP(HCOOH)): 1.36

Cc1cc(F)c(SSc2cc(NC(=O)C(F)(F)F)c(C)cc2F)cc1NC(=O)C(F)(F)F [IV-2, N,N′-[Disulfanediylbis(4-fluoro-6-methylbenzene-3,1-diyl)]bis(2,2,2-trifluoroacetamide)]
chromatographic logP [1, 5]: 4 | chromatographic logP [1, 4]: 3.92

Cc1cc(F)ccc1NC(=O)C(F)(F)F [VI-2, 2,2,2-Trifluoro-N-(4-fluoro-2-methylphenyl)acetamide]
chromatographic logP [1, 5]: 2.2 | chromatographic logP [1, 4]: 2.19

O=C(Nc1cc(SSc2cc(NC(=O)C(F)(F)F)c(Cl)cc2Br)c(Br)cc1Cl)C(F)(F)F [IV-3, N,N′-[Disulfanediylbis(4-bromo-6-chlorobenzene-3,1-diyl)]bis(2,2,2-trifluoroacetamide)]
chromatographic logP [1, 5]: 5.42

Cc1cc(F)c(/N=C(\N)c2ccc(C(F)(F)F)nc2)cc1SCC(F)(F)F [Ia-86]
pest or weed control at 500 g/ha [2, 8]: 100%

Cc1cc(Cl)c(/N=C(\N)C(F)(F)C(F)(F)Cl)cc1[S+]([O-])CC(F)(F)F (stereo not shown) [Ib-31]
pest or weed control at 500 g/ha [2, 8]: 100%

Cc1cc(F)c(/N=C(/CC(F)(F)F)N(C)C)cc1SCC(F)(F)F [Ia-216]
pest or weed control at 500 g/ha [2, 8]: 90%

Cc1cc(F)c(/N=C(\N)c2ccc(Cl)nc2)cc1SCC(F)(F)F [Ia-46]
pest or weed control at 500 g/ha [2, 8]: 100%

CN/C(=N\c1cc([S+]([O-])CC(F)(F)F)c(Cl)cc1Cl)c1ccc(C(F)(F)F)nc1 (stereo not shown) [Ib-144]
pest or weed control at 500 g/ha [2, 8]: 90%

Cc1cc(F)c(/N=C(\N)c2ccncc2)cc1SCC(F)(F)F [Ia-73]
pest or weed control at 500 g/ha [2, 8]: 100%

Cc1cc(F)c(/N=C2\NCCO2)cc1SCC(F)(F)F [Ia-243]
pest or weed control at 500 g/ha [2]: 90%

Cc1cc(F)c(/N=C2\CCCN2C(C)C(F)(F)F)cc1SCC(F)(F)F (stereo not shown) [Ia-201]
pest or weed control at 500 g/ha [2, 8]: 100%

Cc1cc(F)c(N=C(NS(=O)(=O)C(F)(F)F)C(F)(F)F)cc1SCC(F)(F)F [Ia-16]
efficacy (spider mites killed) [2, 8]: 100%

Cc1cc(C)c(SCC(F)(F)F)cc1/N=C(\NCC(F)(F)F)C1CCCC1 [Ia-241]
pest or weed control at 500 g/ha [2, 8]: 90%

Cc1cc(F)c(/N=C(/c2ccc(Cl)cc2)N2CCC(F)(F)CC2)cc1SCC(F)(F)F [Ia-270]
pest or weed control at 500 g/ha [2, 8]: 90%

N/C(=N\c1cc(SCC(F)(F)F)c(Cl)cc1Cl)c1cccnc1 [Ia-141]
pest or weed control at 500 g/ha [2, 8]: 100%

CN/C(=N/c1cc(SCC(F)(F)F)c(F)cc1Cl)C(F)(F)F [Ia-97]
pest or weed control at 500 g/ha [2, 8]: 100%

Cc1cc(F)c(/N=C2\CCCN2C(C)C(F)(F)F)cc1[S+]([O-])CC(F)(F)F (stereo not shown) [Ib-169]
pest or weed control at 500 g/ha [2, 8]: 100%

CCN(CC)/C(=N/c1cc([S+]([O-])CC(F)(F)F)c(C)cc1F)C(F)(F)F (stereo not shown) [Ib-34]
pest or weed control at 500 g/ha [2, 8]: 100%

Cc1cc(Cl)c(SCC(F)(F)F)cc1/N=C(\N)C1CC1 [Ia-102]
pest or weed control at 500 g/ha [2, 8]: 90%

CN/C(=N\c1cc(SCC(F)(F)F)c(C)cc1Cl)c1cccnc1 [Ia-64]
pest or weed control at 500 g/ha [2, 8]: 100%

C#CCN/C(=N\c1cc(SCC(F)(F)F)c(Cl)cc1Cl)C1CC1 [Ia-244]
pest or weed control at 500 g/ha [2, 8]: 90%

CN/C(=N\c1cc(SCC(F)(F)F)c(Cl)cc1Cl)c1ccccn1 [Ia-248]
pest or weed control at 500 g/ha [2, 8]: 90%

Cc1cc(C)c(SCC(F)(F)F)cc1/N=C(\N)C(F)(F)C(F)(F)F [Ia-127]
pest or weed control at 500 g/ha [2, 8]: 100%

Cc1cc(C)c(SCC(F)(F)F)cc1/N=C(\N)c1ccncc1 [Ia-95]
pest or weed control at 500 g/ha [2, 8]: 100%

CN/C(=N/c1cc(SCC(F)(F)F)c(C)cc1F)c1ccc(Cl)nc1 [Ia-168]
pest or weed control at 500 g/ha [2, 8]: 90%

CN(C)/C(=N\c1cc(SCC(F)(F)F)c(Cl)cc1Cl)c1ccccc1 [Ia-205]
pest or weed control at 500 g/ha [2, 8]: 100%

Cc1cc(F)c(/N=C2/NCCS2)cc1SCC(F)(F)F [Ia-238, 2-Fluoro-4-methyl-N-[1,3-thiazolidin-2-ylidene]-5-[(2,2,2-trifluoroethyl)sulfanyl]aniline]
pest or weed control at 500 g/ha [2]: 100%

CN/C(=N\c1cc([S+]([O-])CC(F)(F)F)c(Cl)cc1Cl)c1cccc(Cl)c1 (stereo not shown) [Ib-140]
pest or weed control at 500 g/ha [2, 8]: 100%

Cc1cc(F)c(/N=C(/NCc2ccccc2)C(F)(F)F)cc1[S+]([O-])CC(F)(F)F (stereo not shown) [Ib-74]
pest or weed control at 500 g/ha [2, 8]: 90%

Cc1cc(F)c(N=C(N)c2ccccc2F)cc1SCC(F)(F)F [Ia-133]
pest or weed control at 500 g/ha [2, 8]: 100%

Cc1cc(F)c(/N=C(/c2cccnc2)N2CCC(F)(F)CC2)cc1SCC(F)(F)F [Ia-269]
pest or weed control at 500 g/ha [2, 8]: 90%

Cc1cc(F)c(/N=c2\snc(C)n2C)cc1[S+]([O-])CC(F)(F)F (stereo not shown) [Ib-174]
pest or weed control at 500 g/ha [2, 8]: 100%

Cc1cc(F)c(/N=C(\c2ccccc2C(F)(F)F)N(C)C)cc1SCC(F)(F)F [Ia-245]
pest or weed control at 500 g/ha [2, 8]: 90%

CN/C(=N\c1cc(SCC(F)(F)F)c(C)cc1F)C1CC1 [Ia-163]
pest or weed control at 500 g/ha [2, 8]: 100%

COc1cc(C)c(SCC(F)(F)F)cc1/N=C(/N)C(F)(F)F [Ia-236, 2,2,2-Trifluoro-N′-{2-methoxy-4-methyl-5-[(2,2,2-trifluoroethyl)sulfanyl]phenyl}ethanimidamide]
pest or weed control at 500 g/ha [2, 8]: 100%
